The values below come from patent publication US20220305129A1, “CONJUGATES OF HETEROAROMATIC NITROGEN-COMPRISING COMPOUNDS” (Ascendis Pharma A/S, priority 2019, published 2022).

Structures are written as SMILES.

This series can be described thus: In vitro release kinetics: cleavage rate of the reversible bond in aqueous buffer. It is filed as physicochemical. To be noted: aqueous buffer (sodium phosphate with acetonitrile), pH 7.4, 37° C., 48 mM sodium phosphate, 20% acetonitrile, disappearance of conjugate by LCMS (UV), read-out: t1/2 (pH 7.4) (converted). The procedure: The cleavage rate of the reversible bond from conjugates 6, 10 and 11 was monitored at pH 7.4 and 37° C. in aqueous buffer (pH 7.4 48 mM sodium phosphate, 20% acetonitrile). The disappearance of the conjugate was determined by LCMS (UV detection) and fitted with curve fitting software to obtain the half-life of the release.

For the compound `CCOC(c1ccccc1)n1cnc2ccccc21` (stereo not drawn) [Compound 6], the half-life was 192 h. To `CCOC(c1ccc(CC(=O)O)cc1)n1cnc2ccccc21` (stereo not drawn) [Compound 10] belongs 10 h; to `CCOC(c1ccccc1)n1ncc2ccccc21` (stereo not drawn) [Compound 11], 137 h.
